What was measured:
[1] = target: T1, Serine/threonine-protein kinase DCLK1 (Homo sapiens) (UniProt O15075); assay: DCAMKL1 SGC Tm panel (DSF); conditions: for ΔTm: Compound concentration 10.0 uM
T1 sequence (whole entry): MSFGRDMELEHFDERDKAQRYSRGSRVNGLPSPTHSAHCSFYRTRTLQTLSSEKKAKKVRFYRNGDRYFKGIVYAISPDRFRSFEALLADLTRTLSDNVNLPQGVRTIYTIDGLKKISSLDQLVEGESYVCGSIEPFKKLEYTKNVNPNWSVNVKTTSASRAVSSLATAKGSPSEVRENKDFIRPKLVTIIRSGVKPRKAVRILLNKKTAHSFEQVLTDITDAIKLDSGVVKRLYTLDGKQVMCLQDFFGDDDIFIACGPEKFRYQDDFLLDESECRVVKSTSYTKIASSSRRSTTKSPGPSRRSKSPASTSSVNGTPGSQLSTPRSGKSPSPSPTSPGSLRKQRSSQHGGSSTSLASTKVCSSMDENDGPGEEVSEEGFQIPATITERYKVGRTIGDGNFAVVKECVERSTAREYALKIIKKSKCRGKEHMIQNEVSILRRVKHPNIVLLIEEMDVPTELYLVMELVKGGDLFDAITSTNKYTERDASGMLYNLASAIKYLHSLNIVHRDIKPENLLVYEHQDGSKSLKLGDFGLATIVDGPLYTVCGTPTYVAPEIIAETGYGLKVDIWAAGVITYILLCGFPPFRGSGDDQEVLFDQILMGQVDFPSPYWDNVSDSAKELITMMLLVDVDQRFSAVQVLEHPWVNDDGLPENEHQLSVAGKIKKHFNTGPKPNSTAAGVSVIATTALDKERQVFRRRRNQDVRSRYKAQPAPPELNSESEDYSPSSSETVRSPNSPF

[2] = target: Mitogen-activated protein kinase 9 (Homo sapiens) (UniProt P45984); assay: MAPK9 SGC Tm panel (DSF); conditions: for ΔTm: Compound concentration 10.0 uM
Sequence of Mitogen-activated protein kinase 9 (Homo sapiens) (P45984 whole entry, looked up): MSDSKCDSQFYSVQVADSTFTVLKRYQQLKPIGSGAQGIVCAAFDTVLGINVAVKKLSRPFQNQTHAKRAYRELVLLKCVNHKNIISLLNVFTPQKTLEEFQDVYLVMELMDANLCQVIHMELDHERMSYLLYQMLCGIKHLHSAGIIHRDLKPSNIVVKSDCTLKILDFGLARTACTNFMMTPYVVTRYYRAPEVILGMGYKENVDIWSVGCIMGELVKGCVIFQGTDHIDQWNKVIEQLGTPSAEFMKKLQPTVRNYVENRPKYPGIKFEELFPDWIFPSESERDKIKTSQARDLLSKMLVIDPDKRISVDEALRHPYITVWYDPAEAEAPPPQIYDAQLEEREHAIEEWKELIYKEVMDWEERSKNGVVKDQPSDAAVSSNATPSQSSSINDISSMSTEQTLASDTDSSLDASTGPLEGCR

[3] = target: T2, MAP/microtubule affinity-regulating kinase 4 (Homo sapiens) (UniProt Q96L34); assay: MARK4 SGC Tm panel (DSF); conditions: for ΔTm: Compound concentration 10.0 uM
T2 sequence (whole entry): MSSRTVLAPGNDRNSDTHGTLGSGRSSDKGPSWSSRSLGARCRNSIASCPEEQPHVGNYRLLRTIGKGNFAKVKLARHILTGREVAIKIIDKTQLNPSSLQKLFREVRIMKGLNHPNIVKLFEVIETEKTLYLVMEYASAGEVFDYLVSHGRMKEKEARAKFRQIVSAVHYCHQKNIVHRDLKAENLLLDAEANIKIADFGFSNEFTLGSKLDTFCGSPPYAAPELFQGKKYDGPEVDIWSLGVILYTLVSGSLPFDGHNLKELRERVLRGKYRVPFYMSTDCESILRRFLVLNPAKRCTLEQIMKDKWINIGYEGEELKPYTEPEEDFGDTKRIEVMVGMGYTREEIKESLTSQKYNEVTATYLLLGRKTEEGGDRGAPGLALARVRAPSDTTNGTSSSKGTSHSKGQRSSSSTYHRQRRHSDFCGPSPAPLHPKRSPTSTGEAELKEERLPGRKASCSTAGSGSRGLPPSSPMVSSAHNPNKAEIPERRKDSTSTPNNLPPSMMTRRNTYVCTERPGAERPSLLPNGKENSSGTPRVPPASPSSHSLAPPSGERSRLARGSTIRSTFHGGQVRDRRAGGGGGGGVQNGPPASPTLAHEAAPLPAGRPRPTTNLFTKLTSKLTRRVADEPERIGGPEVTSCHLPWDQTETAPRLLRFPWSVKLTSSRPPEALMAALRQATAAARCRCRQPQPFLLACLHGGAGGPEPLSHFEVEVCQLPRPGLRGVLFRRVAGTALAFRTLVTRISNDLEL

[4] = target: SRSF protein kinase 3 (Homo sapiens) (UniProt Q9UPE1); assay: MSSK1 SGC Tm panel (DSF); conditions: for ΔTm: Compound concentration 10.0 uM
Sequence of SRSF protein kinase 3 (Homo sapiens) (Q9UPE1 whole entry): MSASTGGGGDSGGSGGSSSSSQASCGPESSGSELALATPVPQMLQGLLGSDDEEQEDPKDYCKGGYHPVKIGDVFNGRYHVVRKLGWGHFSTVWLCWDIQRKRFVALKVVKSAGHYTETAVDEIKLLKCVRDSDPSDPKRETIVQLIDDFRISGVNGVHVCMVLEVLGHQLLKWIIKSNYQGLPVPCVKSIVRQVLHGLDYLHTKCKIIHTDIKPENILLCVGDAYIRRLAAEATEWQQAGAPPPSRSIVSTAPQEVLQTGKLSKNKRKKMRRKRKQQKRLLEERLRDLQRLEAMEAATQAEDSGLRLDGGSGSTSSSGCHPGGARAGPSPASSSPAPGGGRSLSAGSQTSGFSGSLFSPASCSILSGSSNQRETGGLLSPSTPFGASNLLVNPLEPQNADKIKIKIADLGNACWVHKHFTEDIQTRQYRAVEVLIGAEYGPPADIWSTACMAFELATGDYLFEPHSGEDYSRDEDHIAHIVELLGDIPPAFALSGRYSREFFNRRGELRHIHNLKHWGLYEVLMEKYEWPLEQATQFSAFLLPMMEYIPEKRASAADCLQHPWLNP

[5] = target: STE20/SPS1-related proline-alanine-rich protein kinase (Homo sapiens) (UniProt Q9UEW8); assay: STK39 SGC Tm panel (DSF); conditions: for ΔTm: Compound concentration 10.0 uM
[6] = target: T3, Serine/threonine-protein kinase VRK1 (Homo sapiens) (UniProt Q99986); assay: VRK1 SGC Tm panel (DSF); conditions: for ΔTm: Compound concentration 10.0 uM
T3 sequence (whole entry): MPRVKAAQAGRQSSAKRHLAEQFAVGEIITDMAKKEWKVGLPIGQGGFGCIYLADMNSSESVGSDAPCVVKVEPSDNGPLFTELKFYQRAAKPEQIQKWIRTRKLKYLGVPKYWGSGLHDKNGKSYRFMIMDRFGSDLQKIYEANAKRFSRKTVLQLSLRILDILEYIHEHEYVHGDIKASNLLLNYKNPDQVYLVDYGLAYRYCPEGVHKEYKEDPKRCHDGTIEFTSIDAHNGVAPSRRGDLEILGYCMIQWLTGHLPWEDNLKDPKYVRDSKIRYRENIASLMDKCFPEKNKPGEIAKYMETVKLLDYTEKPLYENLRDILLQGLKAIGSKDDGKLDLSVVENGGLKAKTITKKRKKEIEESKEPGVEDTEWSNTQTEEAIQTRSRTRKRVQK

[7] = target: 5-hydroxytryptamine receptor 2B (Homo sapiens) (UniProt P41595); conditions: Compound concentration 10.0 uM
Sequence of 5-hydroxytryptamine receptor 2B (Homo sapiens) (P41595 whole entry): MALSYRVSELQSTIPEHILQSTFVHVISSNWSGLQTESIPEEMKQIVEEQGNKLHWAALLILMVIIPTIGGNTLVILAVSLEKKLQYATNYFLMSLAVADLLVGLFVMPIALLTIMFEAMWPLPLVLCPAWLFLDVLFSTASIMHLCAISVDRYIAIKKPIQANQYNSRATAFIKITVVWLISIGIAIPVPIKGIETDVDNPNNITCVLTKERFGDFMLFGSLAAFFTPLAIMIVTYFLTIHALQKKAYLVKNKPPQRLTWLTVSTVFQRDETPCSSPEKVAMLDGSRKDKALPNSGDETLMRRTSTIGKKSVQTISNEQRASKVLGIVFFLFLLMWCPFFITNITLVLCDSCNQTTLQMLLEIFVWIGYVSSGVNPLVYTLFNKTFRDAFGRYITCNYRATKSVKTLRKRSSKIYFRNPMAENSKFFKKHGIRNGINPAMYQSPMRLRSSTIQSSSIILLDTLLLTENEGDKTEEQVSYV

[8] = target: D(1A) dopamine receptor (Homo sapiens) (UniProt P21728); conditions: Compound concentration 10.0 uM
Sequence of D(1A) dopamine receptor (Homo sapiens) (P21728 whole entry): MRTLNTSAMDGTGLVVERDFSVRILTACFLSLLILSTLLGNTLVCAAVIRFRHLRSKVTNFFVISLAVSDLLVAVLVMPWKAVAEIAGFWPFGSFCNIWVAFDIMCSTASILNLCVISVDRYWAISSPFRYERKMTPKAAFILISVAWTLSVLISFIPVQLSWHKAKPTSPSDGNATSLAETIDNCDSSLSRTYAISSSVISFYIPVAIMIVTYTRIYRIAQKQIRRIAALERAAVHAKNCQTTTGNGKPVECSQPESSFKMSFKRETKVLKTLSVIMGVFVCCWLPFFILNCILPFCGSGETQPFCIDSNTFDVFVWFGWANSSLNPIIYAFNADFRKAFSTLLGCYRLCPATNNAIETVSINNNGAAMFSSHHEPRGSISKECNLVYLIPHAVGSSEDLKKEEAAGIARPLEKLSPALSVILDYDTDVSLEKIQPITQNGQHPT

[9] = target: Delta-type opioid receptor (Homo sapiens) (UniProt P41143); conditions: Compound concentration 10.0 uM
Sequence of Delta-type opioid receptor (Homo sapiens) (P41143 whole entry): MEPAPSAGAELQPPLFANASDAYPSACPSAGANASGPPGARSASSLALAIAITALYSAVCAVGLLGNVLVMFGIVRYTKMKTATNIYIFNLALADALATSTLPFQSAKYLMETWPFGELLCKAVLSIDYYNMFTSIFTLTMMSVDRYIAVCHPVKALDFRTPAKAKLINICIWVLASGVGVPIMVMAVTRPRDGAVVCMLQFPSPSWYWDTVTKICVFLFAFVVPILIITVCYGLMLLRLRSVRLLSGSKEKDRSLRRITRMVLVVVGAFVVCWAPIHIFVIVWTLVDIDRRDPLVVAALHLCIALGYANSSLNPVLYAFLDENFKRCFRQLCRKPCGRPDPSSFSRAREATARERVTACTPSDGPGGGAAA

Rattus norvegicus = organism: Rattus norvegicus; conditions: Compound concentration 10.0 uM
[10] = target: Sigma non-opioid intracellular receptor 1 (Homo sapiens) (UniProt Q99720); conditions: Compound concentration 10.0 uM
Sequence of Sigma non-opioid intracellular receptor 1 (Homo sapiens) (Q99720 whole entry): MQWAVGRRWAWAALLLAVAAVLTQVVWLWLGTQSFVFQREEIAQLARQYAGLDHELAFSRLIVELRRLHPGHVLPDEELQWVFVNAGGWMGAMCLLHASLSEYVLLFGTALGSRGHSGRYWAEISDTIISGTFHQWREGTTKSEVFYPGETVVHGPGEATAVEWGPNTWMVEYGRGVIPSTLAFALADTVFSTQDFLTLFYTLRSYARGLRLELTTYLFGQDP

## CCC[C@@H]1CNCc2c1[nH]c(=O)c(C#N)c2N1CCC2(CC1)CC2
[1]
  delta Tm Staurosporine positive control: 12.7
  ΔTm: -1.16
[2]
  delta Tm Staurosporine positive control: 3.03
  ΔTm: -0.0844
[3]
  delta Tm Staurosporine positive control: 15.9
  ΔTm: 0.243
[4]
  delta Tm Staurosporine positive control: 4.52
  ΔTm: -0.164
[5]
  delta Tm Staurosporine positive control: 9.01
  ΔTm: -0.455
[6]
  delta Tm Staurosporine positive control: 2.35
  ΔTm: -0.315
[7]
  inhibition: 33%
[8]
  inhibition: 11%
[9]
  inhibition: 3.91%
Rattus norvegicus
  inhibition: 0.4%
[10]
  inhibition: 13.2%

## CCC[C@H]1CNCc2c1[nH]c(=O)c(C#N)c2N1CCC2(CC1)CC2
[1]
  delta Tm Staurosporine positive control: 12.7
  ΔTm: -1.21
[2]
  delta Tm Staurosporine positive control: 3.03
  ΔTm: -0.605
[3]
  delta Tm Staurosporine positive control: 15.9
  ΔTm: -0.175
[4]
  delta Tm Staurosporine positive control: 4.52
  ΔTm: -0.144
[5]
  delta Tm Staurosporine positive control: 9.01
  ΔTm: -0.273
[6]
  delta Tm Staurosporine positive control: 2.35
  ΔTm: -0.355
[7]
  inhibition: 44.9%
[8]
  inhibition: -2.37%
[9]
  inhibition: -9.99%
Rattus norvegicus
  inhibition: 10.4%
[10]
  inhibition: 18.1%
